# Reference: patent US7906656B2, “Iodopyrazolyl carboxanilides” (Bayer CropScience AG, priority 2003, dated 2011)
# Tested on: Puccinia recondita
# Assay: Puccinia test (wheat)/protective
# Type: in vivo
# Settings: 240 h, protective, application rate 500 g/ha, evaluation 10 days after inoculation, read-out: Efficacy in %
# Experimental: (§1) To produce a suitable preparation of active compound, 1 part by weight of active compound is mixed with the stated amounts of solvent and emulsifier, and the concentrate is diluted with water to the desired concentration. To test for protective activity, young plants are sprayed with the preparation of active compound at the stated application rate. After the spray coating has dried on, the plants are sprayed with a conidia suspension of Puccinia recondita. The plants remain in an incubation cabin at 20° C. and 100% relative atmospheric humidity for 48 hours. The plants are then placed in a greenhouse at a temperature of about 20° C. and a relative atmospheric humidity of 80% to promote the development of rust pustules. Evaluation is carried out 10 days after the inoculation. 0% means an efficacy which corresponds to that of the control, whereas an efficacy of 100% means that no infection is observed.
row,SMILES,pest or weed control at 500 g/ha [%]
1,Cn1cc(C(=O)Nc2ccccc2-c2ccc(I)cc2)c(I)n1 [drawing 114],100
2,CC(C)CC(C)c1ccccc1NC(=O)c1cn(C)nc1I (centres unmarked) [drawing 112],100
3,Cn1cc(C(=O)Nc2ccccc2-c2ccc(Cl)cc2)c(I)n1 [drawing 116],100
4,Cn1cc(C(=O)Nc2ccccc2-c2ccc(Cl)c(Cl)c2)c(I)n1 [drawing 115],100
5,CC(=O)N(C(=O)c1cn(C)nc1I)c1ccccc1C(C)CC(C)C (centres unmarked) [drawing 120],100
6,Cn1cc(C(=O)Nc2ccccc2-c2ccc(F)c(Cl)c2)c(I)n1 [drawing 117],100
7,CC(C)CC(C)c1cc(F)ccc1NC(=O)c1cn(C)nc1I (centres unmarked) [drawing 121],100
8,CC1CC(C)(C)c2cccc(NC(=O)c3cn(C)nc3I)c21 (centres unmarked) [drawing 123],100
9,Cn1cc(C(=O)Nc2ccccc2-c2ccc(C(F)(F)F)c(F)c2)c(I)n1 [drawing 119],100
10,Cn1cc(C(=O)Nc2ccccc2-c2ccc(Br)cc2)c(I)n1 [drawing 118],100
11,Cn1cc(C(=O)Nc2ccccc2-c2ccc(Cl)c(F)c2)c(I)n1 [drawing 113],100
12,CC(CC(C)(C)C)c1ccccc1NC(=O)c1cn(C)nc1I (centres unmarked) [drawing 111],100
13,C=C(CC(C)(C)C)c1ccccc1NC(=O)c1cn(C)nc1I [drawing 124],100
14,CC(C)CCc1ccccc1NC(=O)c1cn(C)nc1I [drawing 122],100

# Tested on: Pyrenophora teres
# Assay: Pyrenophora teres test (barley)/protective
# Type: in vivo
# Settings: 192 h, protective, application rate 500 g/ha, evaluation 8 days after inoculation, read-out: Efficacy in %
# Experimental: as §1, with “of Pyrenophora teres.” for “of Puccinia recondita.”, “of about 80%.” for “of 80% to promote the development of rust pustules.”, “out 8” for “out 10”
row,SMILES,pest or weed control at 500 g/ha [%]
1,CC(C)CC(C)c1cc(F)ccc1NC(=O)c1cn(C)nc1I (centres unmarked) [drawing 110],100
2,CC(=O)N(C(=O)c1cn(C)nc1I)c1ccccc1C(C)CC(C)C (centres unmarked) [drawing 109],100
3,Cn1cc(C(=O)Nc2ccccc2-c2ccc(F)c(Cl)c2)c(I)n1 [drawing 106],100
4,Cn1cc(C(=O)Nc2ccccc2-c2ccc(Cl)cc2)c(I)n1 [drawing 105],100
5,Cn1cc(C(=O)Nc2ccccc2-c2ccc(Cl)c(F)c2)c(I)n1 [drawing 103],100
6,Cn1cc(C(=O)Nc2ccccc2-c2ccc(Br)cc2)c(I)n1 [drawing 107],100
7,CC(C)CC(C)c1ccccc1NC(=O)c1cn(C)nc1I (centres unmarked) [drawing 102],100
8,Cn1cc(C(=O)Nc2ccccc2-c2ccc(I)cc2)c(I)n1 [drawing 104],100
9,CC(CC(C)(C)C)c1ccccc1NC(=O)c1cn(C)nc1I (centres unmarked) [drawing 101],93
10,Cn1cc(C(=O)Nc2ccccc2-c2ccc(C(F)(F)F)c(F)c2)c(I)n1 [drawing 108],100

# Tested on: Botrytis cinerea
# Assay: Botrytis test (bean)/protective
# Type: in vivo
# Settings: 48 h, protective, application rate 100 g/ha, evaluation 2 days after inoculation, read-out: Efficacy in %
# Experimental: To produce a suitable preparation of active compound, 1 part by weight of active compound is mixed with the stated amounts of solvents and emulsifier, and the concentrate is diluted with water to the desired concentration. To test for protective activity, young plants are sprayed with the preparation of active compound at the stated application rate. After the spray coating has dried on, 2 small pieces of agar colonized with Botrytis cinerea are placed onto each leaf. The inoculated plants are placed in a darkened chamber at about 20° C. and 100% relative atmospheric humidity. 2 days after the inoculation, the size of the infected areas on the leaves is evaluated. 0% means an efficacy which corresponds to that of the control, whereas an efficacy of 100% means that no infection is observed.
row,SMILES,pest or weed control at 100 g/ha [%]
1,CC(C)CC(C)c1cc(F)ccc1NC(=O)c1cn(C)nc1I (centres unmarked) [drawing 100],100
2,CC1CC(C)(C)c2cccc(NC(=O)c3cn(C)nc3I)c21 (centres unmarked) [drawing 99],100
3,Cn1cc(C(=O)Nc2ccc(F)cc2-c2ccc(Cl)c(Cl)c2)c(I)n1 [drawing 88],100
4,Cn1cc(C(=O)Nc2ccccc2-c2ccc(I)cc2)c(I)n1 [drawing 97],100
5,Cn1cc(C(=O)Nc2ccccc2-c2ccc(Cl)cc2)c(I)n1 [drawing 96],100
6,CC(C)CCc1ccccc1NC(=O)c1cn(C)nc1I [drawing 98],98

# Same assay, conditions: 48 h, protective, application rate 500 g/ha, evaluation 2 days after inoculation, read-out: Efficacy in %
row,SMILES,pest or weed control at 500 g/ha [%]
1,CC(C)CC(C)c1ccccc1NC(=O)c1cn(C)nc1I (centres unmarked) [drawing 86],100
2,Cn1cc(C(=O)Nc2ccccc2-c2ccc(Br)cc2)c(I)n1 [drawing 90],100
3,CC(CC(C)(C)C)c1ccccc1NC(=O)c1cn(C)nc1I (centres unmarked) [drawing 85],100
4,Cn1cc(C(=O)Nc2ccccc2-c2ccc(Cl)c(F)c2)c(I)n1 [drawing 91],100
5,Cn1cc(C(=O)Nc2ccccc2-c2ccc(C(F)(F)F)cc2)c(I)n1 [drawing 94],94
6,Cn1cc(C(=O)Nc2ccccc2-c2ccc(C(F)(F)F)c(F)c2)c(I)n1 [drawing 95],100
7,CCCO/N=C/c1ccc(-c2ccccc2NC(=O)c2cn(C)nc2I)cc1F [drawing 92],100
8,Cn1cc(C(=O)Nc2ccccc2-c2ccc(F)c(Cl)c2)c(I)n1 [drawing 89],100
9,Cn1cc(C(=O)Nc2ccccc2-c2ccc(Cl)c(Cl)c2)c(I)n1 [drawing 87],100
10,Cc1ccc(-c2ccccc2NC(=O)c2cn(C)nc2I)cc1F [drawing 93],100

# Tested on: Venturia inaequalis
# Assay: Venturia test (apple)/protective
# Type: in vivo
# Settings: 240 h, protective, application rate 100 g/ha, evaluation 10 days after inoculation, read-out: Efficacy in %
# Experimental: To produce a suitable preparation of active compound, 1 part by weight of active compound is mixed with the stated amounts of solvents and emulsifier, and the concentrate is diluted with water to the desired concentration. To test for protective activity, young plants are sprayed with the preparation of active compound at the stated application rate. After the spray coating has dried on, the plants are inoculated with an aqueous conidia suspension of the apple pathogen Venturia inaequalis and then remain in an incubation cabin at about 20° C. and 100% relative atmospheric humidity for 1 day. The plants are then placed in a greenhouse at about 21° C. and a relative atmospheric humidity of about 90%. Evaluation is carried out 10 days after the inoculation. 0% means an efficacy which corresponds to that of the control, whereas an efficacy of 100% means that no infection is observed.
row,SMILES,pest or weed control at 100 g/ha [%]
1,CC(CC(C)(C)C)c1ccccc1NC(=O)c1cn(C)nc1I (centres unmarked) [drawing 69],100
2,Cn1cc(C(=O)Nc2ccccc2-c2ccc(Cl)c(F)c2)c(I)n1 [drawing 75],100
3,Cn1cc(C(=O)Nc2ccccc2-c2ccc(F)c(Cl)c2)c(I)n1 [drawing 73],100
4,Cn1cc(C(=O)Nc2ccccc2-c2ccc(Cl)cc2)c(I)n1 [drawing 80],100

# Tested on: Alternaria solani
# Assay: Alternaria test (tomato)/protective
# Type: in vivo
# Settings: protective, application rate 750 g/ha, evaluation 7 days after inoculation
# Experimental: To produce a suitable preparation of active compound, 1 part by weight of active compound is mixed with the stated amounts of solvent and emulsifier, and the concentrate is diluted with water to the desired concentration. To test for protective activity, young tomato plants are sprayed with the preparation of active compound at the stated application rate. 1 day after the treatment, the plants are inoculated with a spore suspension of Alternaria solani and are then allowed to stand at 100% relative atmospheric humidity and 20° C. for 24 h. The plants are then allowed to stand at 96% relative atmospheric humidity and a temperature of 20° C. The evaluation is carried out 7 days after the inoculation. 0% means an efficacy which corresponds to that of the control, whereas an efficacy of 100% means that no infection is observed.
row,SMILES,Efficacy in % [%]
1,Cn1cc(C(=O)Nc2ccc(F)cc2-c2ccc(Cl)c(Cl)c2)c(I)n1 [drawing 126],100
2,Cn1cc(C(=O)Nc2ccccc2-c2ccc(F)c(Cl)c2)c(I)n1 [drawing 127],100
3,Cn1cc(C(=O)Nc2ccccc2-c2ccc(I)cc2)c(I)n1 [drawing 125],100
